# Article PMC5915530, “Immunosilencing peptides by stereochemical inversion and sequence reversal: retro-D-peptides” (Scientific Reports, 2018)
# Non-standard residues stand in square brackets, D forms with d. Residues, ends and D or L forms follow the SMILES beside them.
# Assays:
# Protease resistance = type: in vitro ADME; conditions: as stated in abstract
# Description: (§1) Data were processed using GraphPad Prism 6.0 software. All results are presented as mean + SEM. Data from human serum stability assays were analyzed as non-linear one-phase exponential decay model for L-peptides and as standard linear model with zero slope for D-peptides. Deviations from a value of 100 at each dilution point were assessed using a linear model, in which group and interaction were included as covariates. In immune response studies, each dilution point (in ELISAs) was analyzed by a Mann-Whitney test to assess differences between S0 with S1 or S2. In both cases, 5% was set as a threshold for statistical significance.
# BALB/c mice = test: Mouse immunization with unconjugated peptides, titration of peptide-specific antibodies in serum by ELISA; type: in vivo; conditions: seven i.p. doses of 50 μg, BALB/c mice (four per group), CFA first dose, IFA boosters, PBS last, ELISA on peptide-BSA conjugate, serum diluted from 1:100, anti-Mouse IgG-HRP, read at 450 nm, Fig. 3a, b
# Text: To date, several studies have used D-peptides as tools for vaccine development. In these cases the peptides have been conjugated to large supramolecular entities, e.g. KLH and small unilamelar liposomes containing monophosphoryl lipid A[23],[24]. Nevertheless, the use of retro-D-peptides as therapeutics was controversial twenty years ago[25],[26]. Thus, to shed light on the immunogenicity of D-peptides and add further value to these compounds, we evaluated the immunological responses activated by retro-D-THR and retro-D-HAI peptides and compared them to that of their parent peptides. For this purpose, peptides (not conjugated) were i.p. administered to mice, and antibody titration was used as parameter to evaluate immunological (humoral) response by ELISA.
# Four groups of four BALB/c mice were treated with either one of the parent peptides or their retro-D-version. Each mouse received seven doses i.p. of 50 μg of peptide. Complete Freund’s[49] adjuvant (CFA) was administered in the first dose, incomplete Freund’s adjuvant (IFA) in the subsequent five booster injections, and PBS in the last one. Bleedings for the titration of specific antibody production were performed before the first dose (time zero bleeding) and five days after the fourth and last dose (Supplementary Scheme 1). The peptide-specific humoral response was quantified by ELISA. MaxiSorp plates (Nunc) were treated with 0.1 mL of the corresponding peptide-BSA conjugate (1 μg) per well in carbonate buffer, overnight at 4 °C (Supplementary Fig. 6b). Afterwards, plates were blocked with 0.2 mL PBS-Tween 20 (T20) containing 2% of milk powder for 2 h a 37 °C. Each sample serum was consecutively diluted 1/2 (starting by dilution 1:100) in PBS-T20 and incubated for 1 h at 37 °C. Incubation with a secondary antibody (dil. 1/5,000) anti-Mouse IgG-HRP (ref. R1253HRP; batch 26922; Acris) was left for 1 h at 37 °C. Washes (x3) with PBST (300 μl/well) were applied after each antibody incubation. Finally, TMB (100 μl/well) was added and left for 30 min, when the stop solution (100 μl, HClaq 1 N) blocked the colorimetric reaction. Plates were read at 450 nm (Fig. 3a–c). […]
# as §1, with “All results are presented as mean + SEM.” left out, “In both cases, 5% was set as a threshold for statistical significance.” left out
# [1] = demonstrated earlier by the authors' laboratory; ref 21 (printed for retro-D-THR); cited from earlier work
# Text: (§2) We have applied this previously described strategy to a family of peptide BBB shuttles (H2N-HAIYPRH-CONH2 and H2N-THRPPMWSPVWP-CONH2[14], namely HAI and THR peptides, respectively). BBB shuttles are molecular entities of diverse origin, e.g. synthetic or natural peptides, which have the capacity to cross the blood-brain barrier (BBB) and, when covalently conjugated to drugs unable to cross the BBB unaided, can deliver them into the central nervous system (CNS)[15]. Those that cross through receptor-mediated transcytosis are also included in the term ‘molecular Trojan horses’[16],[17]. Although ...
# [2] = test system: blood-brain barrier (BBB); conditions: parent versions, in several studies; ref not given; cited from earlier work
# Text: as §2
protease resistance (Protease resistance),"immunogenicity (peptide-specific humoral response, antibody titration) (BALB/c mice)",Molecule,"immunogenicity (peptide-specific humoral response, antibody titration) (BALB/c mice; listed as H2N-hrpyiah-CONH2)",protease-resistance [1],"immunogenicity (peptide-specific humoral response, antibody titration) (BALB/c mice; listed as H2N-pwvpswmpprht-CONH2)",BBB permeability [2]
protease-resistant,not immunogenic per se,CC[C@@H](C)[C@@H](NC(=O)[C@@H](Cc1ccc(O)cc1)NC(=O)[C@H]1CCCN1C(=O)[C@@H](CCCNC(=N)N)NC(=O)[C@H](N)Cc1c[nH]cn1)C(=O)N[C@H](C)C(=O)N[C@H](Cc1c[nH]cn1)C(N)=O [retro-D-HAI],much less immunogenic than the parent peptide,protease-resistance,–,–
protease-resistant,not immunogenic per se,CSCC[C@@H](NC(=O)[C@@H](Cc1c[nH]c2ccccc12)NC(=O)[C@@H](CO)NC(=O)[C@H]1CCCN1C(=O)[C@H](NC(=O)[C@@H](Cc1c[nH]c2ccccc12)NC(=O)[C@H]1CCCN1)C(C)C)C(=O)N1CCC[C@@H]1C(=O)N1CCC[C@@H]1C(=O)N[C@H](CCCNC(=N)N)C(=O)N[C@H](Cc1c[nH]cn1)C(=O)N[C@@H](C(N)=O)[C@H](C)O [retro-D-THR] (H-[dP][dW][dV][dP][dS][dW][dM][dP][dP][dR][dH][dT]-NH2),–,protease-resistance,much less immunogenic than the parent peptide,–
–,–,"H2N-HAIYPRH-CONH2 [parent L-peptide BBB shuttle, H2N-HAIYPRH-CONH2]",–,–,–,efficient BBB permeability
–,–,"H2N-THRPPMWSPVWP-CONH2 (H-THRPPMWSPVWP-NH2) [parent L-peptide BBB shuttle, H2N-…-CONH2]",–,–,–,efficient BBB permeability
